What was measured:
Type in all cases: physicochemical
[1] = Saturation of polyacrylonitrile filter by repeated replenishment of nafamostat solution (Example 8)
Method: To determine if a polyacrylonitrile filter can be saturated, and if so, what quantity of nafamostat would be required, an in vitro experiment was conducted wherein 632 milligrams of nafamostat were passed through the filter in the same manner as described in FIG. 5 for 20 minutes. Then the solution was replenished with an additional 632 milligrams (solution B-1), which was circulated for an additional 20 minutes, followed by replenishment with an additional 632 milligrams (solution B-2), which was circulated for an additional 20 minutes and finally replenished with an additional 379 milligrams. The total quantity of 2275 milligrams represents a three-day consumption of nafamostat at the maximum dose of 31.2 mg/h. As one can see from Table 4, nafamostat continues to adsorb to the polyacrylonitrile filter even after the entire quantity of 2275 milligrams has been delivered.

[2] = Adsorption of nafamostat to circuit tubing, in vitro dialysis circuit without filter, HPLC; conditions: for Percent of Nafamostat Remaining as a Ratio of the Starting Concentration at Time 0: tubing only, no filter
Method: A dialysis apparatus was established as described in FIG. 5 without using a filter. An experiment was conducted to determine the adsorption characteristics to the tubing. The solution was circulated through the tubing at typical CRRT flow rates of 100-300 milliliters per minute (FIG. 5). The concentration of nafamostat was measured via HPLC at 0, 5, 10 and 20 minutes. Only one reservoir of nafamostat was used. Therefore, any change in concentration represents adsorption since the molecule cannot escape the system. […] Therefore, any change in concentration can be attributed to adsorption onto the filter membrane tested.

[3] = Filter membrane adsorption in in vitro dialysis circuit, HPLC; conditions: for Quantity (% nafamostat free base) remaining after the initiation of priming: 500 mL; for Quantity (mcg nafamostat free base) adsorbed over time (minutes), Avg.: average of 5, 10, 20 min; for Time in which the change in concentration is complete: regardless the solution concentration
Method: A dialysis apparatus was established as described in FIG. 5 using a PS, PES, PAES, or a PAN filter. A series of experiments was conducted using various filter membranes in an in vitro model to determine the filter membrane adsorption characteristics. A solution of nafamostat was circulated through the blood and dialysate sides of the filter at typical CRRT flow rates of 100-300 milliliters per minute. The concentration of nafamostat was measured via HPLC at 0, 5, 10 and 20 minutes. Only one reservoir of nafamostat was used. Therefore, any change in concentration represents adsorption since the molecule cannot escape the system. The following filters were used: Polyethersulfone (PES) from […], part number CAR-505; Polyarylethersulfone (PAES) from Baxter, part number HF1000; Polyacrylonitrile (PAN) from Baxter, part number M100; Polysulfone (PS) from Baxter, part number F50; no filter, tubing only from Baxter, part number M100. Baxter tubing was used for all filter tests.

Structure (SMILES): N=C(N)c1ccc2cc(OC(=O)c3ccc(N=C(N)N)cc3)ccc2c1 [Nafamostat, nafamostat]
- Amount of Nafamostat Remaining as a Ratio of the Starting Concentration at Time 0 ([1]; Example 8, Solution A 632 mg, 0 min): 99.2%
- Amount of Nafamostat Remaining as a Ratio of the Starting Concentration at Time 0 ([1]; Example 8, Solution A 632 mg, 5 min): 8.5%
- Amount of Nafamostat Remaining as a Ratio of the Starting Concentration at Time 0 ([1]; Example 8, Solution A 632 mg, 10 min): 0.8%
- Amount of Nafamostat Remaining as a Ratio of the Starting Concentration at Time 0 ([1]; Example 8, Solution A 632 mg, 20 min): 0.0%
- Amount of Nafamostat Remaining as a Ratio of the Starting Concentration at Time 0 ([1]; Example 8, Solution B-1, added 632 mg, 0 min): 100.0%
- Amount of Nafamostat Remaining as a Ratio of the Starting Concentration at Time 0 ([1]; Example 8, Solution B-1, added 632 mg, 5 min): 14.6%
- Amount of Nafamostat Remaining as a Ratio of the Starting Concentration at Time 0 ([1]; Example 8, Solution B-1, added 632 mg, 10 min): 6.2%
- Amount of Nafamostat Remaining as a Ratio of the Starting Concentration at Time 0 ([1]; Example 8, Solution B-1, added 632 mg, 20 min): 3.1%
- Amount of Nafamostat Remaining as a Ratio of the Starting Concentration at Time 0 ([1]; Example 8, Solution B-2, added 632 mg, 0 min): 100.0%
- Amount of Nafamostat Remaining as a Ratio of the Starting Concentration at Time 0 ([1]; Example 8, Solution B-2, added 632 mg, 5 min): 20.0%
- Amount of Nafamostat Remaining as a Ratio of the Starting Concentration at Time 0 ([1]; Example 8, Solution B-2, added 632 mg, 10 min): 14.6%
- Amount of Nafamostat Remaining as a Ratio of the Starting Concentration at Time 0 ([1]; Example 8, Solution B-2, added 632 mg, 20 min): 10.8%
- Amount of Nafamostat Remaining as a Ratio of the Starting Concentration at Time 0 ([1]; Example 8, Solution B-3, added 379 mg, 0 min): 100.0%
- Amount of Nafamostat Remaining as a Ratio of the Starting Concentration at Time 0 ([1]; Example 8, Solution B-3, added 379 mg, 5 min): 20.8%
- Amount of Nafamostat Remaining as a Ratio of the Starting Concentration at Time 0 ([1]; Example 8, Solution B-3, added 379 mg, 10 min): 19.2%
- Amount of Nafamostat Remaining as a Ratio of the Starting Concentration at Time 0 ([1]; Example 8, Solution B-3, added 379 mg, 20 min): 17.7%
- Saturation of the PAN filter with nafamostat ([1]; total quantity of 2275 milligrams delivered): cannot be saturated
- Percent of Nafamostat Remaining as a Ratio of the Starting Concentration at Time 0 ([2]; 0 min): 100%
- Percent of Nafamostat Remaining as a Ratio of the Starting Concentration at Time 0 ([2]; 5 min): 100%
- Percent of Nafamostat Remaining as a Ratio of the Starting Concentration at Time 0 ([2]; 10 min): 101%
- Percent of Nafamostat Remaining as a Ratio of the Starting Concentration at Time 0 ([2]; 20 min): 100%
- Adsorption onto the tubing ([2]; tubing used for all tests): does not adsorb substantially
- Quantity (% nafamostat free base) remaining after the initiation of priming ([3]; Example 2, PS F50, 158 mcg/mL, 0 min): 100%
- Quantity (% nafamostat free base) remaining after the initiation of priming ([3]; Example 2, PS F50, 158 mcg/mL, 5 min): 96.7%
- Quantity (% nafamostat free base) remaining after the initiation of priming ([3]; Example 2, PS F50, 158 mcg/mL, 10 min): 96.8%
- Quantity (% nafamostat free base) remaining after the initiation of priming ([3]; Example 2, PS F50, 158 mcg/mL, 20 min): 97.2%
- Quantity (mcg nafamostat free base) adsorbed over time (minutes) ([3]; Example 2, PS F50, prime quantity 79,000 mcg, 5 min): 2,620 mcg
- Quantity (mcg nafamostat free base) adsorbed over time (minutes) ([3]; Example 2, PS F50, prime quantity 79,000 mcg, 10 min): 2,559 mcg
- Quantity (mcg nafamostat free base) adsorbed over time (minutes) ([3]; Example 2, PS F50, prime quantity 79,000 mcg, 20 min): 2,222 mcg
- Quantity (mcg nafamostat free base) adsorbed over time (minutes), Avg. ([3]; Example 2, PS F50, prime quantity 79,000 mcg): 2,467 mcg
- Quantity (% nafamostat free base) remaining after the initiation of priming ([3]; Example 3, PES CAR-505, 158 mcg/mL, 0 min): 100%
- Quantity (% nafamostat free base) remaining after the initiation of priming ([3]; Example 3, PES CAR-505, 158 mcg/mL, 5 min): 95.6%
- Quantity (% nafamostat free base) remaining after the initiation of priming ([3]; Example 3, PES CAR-505, 158 mcg/mL, 10 min): 95.6%
- Quantity (% nafamostat free base) remaining after the initiation of priming ([3]; Example 3, PES CAR-505, 158 mcg/mL, 20 min): 95.6%
- Quantity (mcg nafamostat free base) adsorbed over time (minutes) ([3]; Example 3, PES CAR-505, prime quantity 79,000 mcg, 5 min): 3,555 mcg
- Quantity (mcg nafamostat free base) adsorbed over time (minutes) ([3]; Example 3, PES CAR-505, prime quantity 79,000 mcg, 10 min): 3,555 mcg
- Quantity (mcg nafamostat free base) adsorbed over time (minutes) ([3]; Example 3, PES CAR-505, prime quantity 79,000 mcg, 20 min): 3,555 mcg
- Quantity (mcg nafamostat free base) adsorbed over time (minutes), Avg. ([3]; Example 3, PES CAR-505, prime quantity 79,000 mcg): 3,555 mcg
- Quantity (% nafamostat free base) remaining after the initiation of priming ([3]; Example 4, PAES HF1000, 158 mcg/mL, 0 min): 100%
- Quantity (% nafamostat free base) remaining after the initiation of priming ([3]; Example 4, PAES HF1000, 158 mcg/mL, 5 min): 96.9%
- Quantity (% nafamostat free base) remaining after the initiation of priming ([3]; Example 4, PAES HF1000, 158 mcg/mL, 10 min): 97.2%
- Quantity (% nafamostat free base) remaining after the initiation of priming ([3]; Example 4, PAES HF1000, 158 mcg/mL, 20 min): 97.1%
- Quantity (mcg nafamostat free base) adsorbed over time (minutes) ([3]; Example 4, PAES HF1000, prime quantity 79,000 mcg, 5 min): 2,446 mcg
- Quantity (mcg nafamostat free base) adsorbed over time (minutes) ([3]; Example 4, PAES HF1000, prime quantity 79,000 mcg, 10 min): 2,184 mcg
- Quantity (mcg nafamostat free base) adsorbed over time (minutes) ([3]; Example 4, PAES HF1000, prime quantity 79,000 mcg, 20 min): 2,261 mcg
- Quantity (mcg nafamostat free base) adsorbed over time (minutes), Avg. ([3]; Example 4, PAES HF1000, prime quantity 79,000 mcg): 2,297 mcg
- Quantity (% nafamostat free base) remaining after the initiation of priming ([3]; Example 5, PAN M100, 158 mcg/mL, 0 min): 98.7%
- Quantity (% nafamostat free base) remaining after the initiation of priming ([3]; Example 5, PAN M100, 158 mcg/mL, 5 min): 20.5%
- Quantity (% nafamostat free base) remaining after the initiation of priming ([3]; Example 5, PAN M100, 158 mcg/mL, 10 min): 4.3%
- Quantity (% nafamostat free base) remaining after the initiation of priming ([3]; Example 5, PAN M100, 158 mcg/mL, 20 min): 0.3%
- Quantity (mcg nafamostat free base) adsorbed over time (minutes) ([3]; Example 5, PAN M100, prime quantity 79,000 mcg, 5 min): 61,770 mcg
- Quantity (mcg nafamostat free base) adsorbed over time (minutes) ([3]; Example 5, PAN M100, prime quantity 79,000 mcg, 10 min): 74,594 mcg
- Quantity (mcg nafamostat free base) adsorbed over time (minutes) ([3]; Example 5, PAN M100, prime quantity 79,000 mcg, 20 min): 77,732 mcg
- Quantity (mcg nafamostat free base) adsorbed over time (minutes), Avg. ([3]; Example 5, PAN M100, prime quantity 79,000 mcg): 71,365 mcg
- Quantity (% nafamostat free base) remaining after the initiation of priming ([3]; Example 6, PAN M100, 316 mcg/mL, 0 min): 99.5%
- Quantity (% nafamostat free base) remaining after the initiation of priming ([3]; Example 6, PAN M100, 316 mcg/mL, 5 min): 20.4%
- Quantity (% nafamostat free base) remaining after the initiation of priming ([3]; Example 6, PAN M100, 316 mcg/mL, 10 min): 4.3%
- Quantity (% nafamostat free base) remaining after the initiation of priming ([3]; Example 6, PAN M100, 316 mcg/mL, 20 min): 0.4%
- Quantity (mcg nafamostat free base) adsorbed over time (minutes) ([3]; Example 6, PAN M100, prime quantity 158,000 mcg, 5 min): 124,946 mcg
- Quantity (mcg nafamostat free base) adsorbed over time (minutes) ([3]; Example 6, PAN M100, prime quantity 158,000 mcg, 10 min): 150,288 mcg
- Quantity (mcg nafamostat free base) adsorbed over time (minutes) ([3]; Example 6, PAN M100, prime quantity 158,000 mcg, 20 min): 156,502 mcg
- Quantity (mcg nafamostat free base) adsorbed over time (minutes), Avg. ([3]; Example 6, PAN M100, prime quantity 158,000 mcg): 143,912 mcg
- Quantity (% nafamostat free base) remaining after the initiation of priming ([3]; Example 7, PAN M100, 632 mcg/mL, 0 min): 99.1%
- Quantity (% nafamostat free base) remaining after the initiation of priming ([3]; Example 7, PAN M100, 632 mcg/mL, 5 min): 17.4%
- Quantity (% nafamostat free base) remaining after the initiation of priming ([3]; Example 7, PAN M100, 632 mcg/mL, 10 min): 2.7%
- Quantity (% nafamostat free base) remaining after the initiation of priming ([3]; Example 7, PAN M100, 632 mcg/mL, 20 min): 0.04%
- Quantity (mcg nafamostat free base) adsorbed over time (minutes) ([3]; Example 7, PAN M100, prime quantity 316,000 mcg, 5 min): 258,314 mcg
- Quantity (mcg nafamostat free base) adsorbed over time (minutes) ([3]; Example 7, PAN M100, prime quantity 316,000 mcg, 10 min): 304,629 mcg
- Quantity (mcg nafamostat free base) adsorbed over time (minutes) ([3]; Example 7, PAN M100, prime quantity 316,000 mcg, 20 min): 313,065 mcg
- Quantity (mcg nafamostat free base) adsorbed over time (minutes), Avg. ([3]; Example 7, PAN M100, prime quantity 316,000 mcg): 292,003 mcg
- Time in which the change in concentration is complete ([3]; non-PAN filter (PAES)): ≤ 5 min
- Time in which the change in concentration is complete ([3]; non-PAN filter (PES)): ≤ 5 min
- Time in which the change in concentration is complete ([3]; non-PAN filter (PS)): ≤ 5 min
- Change in concentration in the PAN filters ([3]; within the first 5 minutes): 80%
- Change in concentration in the PAN filters ([3]; within the first 10 minutes): 95%
- Change in concentration in the PAN filters ([3]; within the first 15 minutes): 99%
- Change in concentration in the PAN filters ([3]; within the first 20 minutes): 99.5%
